Results from patent US20250223295A1, “SOLID STATE FORMS OF RUCAPARIB TOSYLATE” (ASSIA CHEMICAL INDUSTRIES LTD., priority 2022, published 2025).
Entries after “also recorded” stand apart in the source; their conditions may differ.

Columns and labels:
Format in all cases: physicochemical
[1] = Exposure to solvent vapour (XRPD); conditions: 25° C., 7 days
Method: (§1) A sample is powdered in a mortar and pestle and applied directly on a silicon plate holder. The X-ray powder diffraction pattern was measured with Philips X'Pert PRO X-ray powder diffractometer, equipped with Cu irradiation source=1.54184 Å (Ångström), X'Celerator (2.022° 2θ) detector. Scanning parameters: angle range: 3-40 deg., step size 0.0167, time per step 37 s, continuous scan.
Samples of Rucaparib tosylate form X (20-40 mg) were put in small vials and exposed to solvent vapours (2.5 ml each of ethanol, 96%, water and 2-propanol) at 25° C.

[2] = Stability to compression (XRPD); conditions: for XRPD analysis results: after 1-5 minutes
Method: as §1
Samples of Rucaparib tosylate form X were subjected to pressures of 1000 kg and 2000 kg. XRPD analysis was performed on the samples after 1-5 minutes.

[3] = Storage stability at different relative humidities (XRPD); conditions: for XRPD analysis results: 7 days
Method: as §1
Samples of Rucaparib tosylate form X (about 200 mg each) were subjected to conditions of different relative humidities at ambient temperature. XRPD analysis was performed on the samples after 7 days.
A sample of Rucaparib tosylate form X was subjected to 100% relative humidity at 25° C.

Thermal stability (XRPD) = conditions: Heating 100° C., 30 minutes
Method: as §1
A sample of Rucaparib tosylate form X was subjected to heating up to 100° C. for 30 minutes.

[4] = Grinding experiments (XRPD); conditions: for XRPD analysis results: 3 minutes
Method: as §1
Samples of Rucaparib tosylate form X were subjected to strong grinding, and to solvent drop grinding in water, ethanol (96%) and 2-propanol. Grinding was carried out on the samples alone, or in the presence of ethanol, water and 2-propanol. In these experiments, about 20-30 mg of the sample were placed in a mortar and ground with a pestle for 3 minutes. The solvent, when used, as added to the crystalline material before grinding, in a volume of 10 microlitres.

Rucaparib Tosylate [Rucaparib tosylate form X]
XRPD analysis results ([1]; 2-propanol vapour): Form X | XRPD analysis results ([1]; Ethanol, 96% vapour): Form X | XRPD analysis results ([1]; Water vapour): Form X | XRPD analysis results ([2]; Pressure 1000 kg): No change | XRPD analysis results ([2]; Pressure 2000 kg): No change | Stability under high pressure conditions ([2]; pressures of 1000 kg and 2000 kg): stable | XRPD analysis results ([3]; 20% relative humidity, ambient temperature, triplicate): Form X | Stability after exposure to high and low relative humidity ([3]; 20-100% relative humidity, ambient temperature, at least 7 days): stable | XRPD analysis results ([3]; 40% relative humidity, ambient temperature, triplicate): Form X | XRPD analysis results ([3]; 60% relative humidity, ambient temperature, triplicate): Form X | XRPD analysis results ([3]; 80% relative humidity, ambient temperature, triplicate): Form X | XRPD analysis, polymorphic change ([3]; 100% relative humidity, 25° C., 30 days, triplicate): no polymorphic change | XRPD analysis results ([3]; 100% relative humidity, ambient temperature, triplicate): Form X | Result (XRPD analysis) (Thermal stability (XRPD)): no change in the starting material; also recorded: Form X | XRPD analysis results ([4]; Solvent-drop grinding (2-propanol), 10 microlitres): Form X | XRPD analysis results ([4]; Solvent-drop grinding (ethanol), 10 microlitres): Form X | XRPD analysis results ([4]; Solvent-drop grinding (water), 10 microlitres): Form X | XRPD analysis results ([4]; Strong grinding): Form X | XRPD analysis after the grinding experiment ([4]; all grinding conditions: alone or with ethanol, water, 2-propanol): no change in the starting material
